Experimental data from patent US20260355171A1, “INHIBITORS AND USES THEREFOR” (priority 2022, published 2026).

Key:
[1] = test system: primary neurons; test: Neuronal cell death in the presence of NMDA; format: cell-based, mouse; details: 1 or 10 μM compound, 100 μM NMDA
Procedure: (§1) Primary neurons were treated with 0.4, 1, 2, 10 or 50 μM of compound 2 or compound 22 (prepared according to Example 2). NSP5 was added to primary neurons at DIV11, and compound 2 or 22 was added 48 hours later. Cells were treated with propidium iodide 48 hours after compound addition. Cells were washed with PBS and fixed with 4% PFA. Cells were then washed and stained with DAPI. Images of cells were taken with ZEISS Axioscan 7 microscope slide scanner. Cell death was determined by Image J analysis, counting the death cell (red, PI)) vs all cells (blue, DAPI).
(§2) One hour after compound addition (1 or 10 μM of compound 2 or compound 22) neurons were treated with a cytotoxic agent (100 μM N-methyl-D-aspartate (NMDA), 100 μM H2O2 or 5 μM staurosporine). One hour after treatment with the cytotoxic agent, the media was replaced with fresh media and the neurons were incubated for 24 hours. A final concentration of 1 μM propidium iodide (PI) was added into the well and incubated for 5 mins. Cells were washed with phosphate-buffered saline (PBS) and then fixed with 4% PFA. Cells were then washed and stained with DAPI, and cell death determined as described above.

[2] = test system: primary neurons; test: Neuronal cell death in the presence of H2O2; format: cell-based, mouse; details: 1 or 10 μM compound, 100 μM H2O2
Procedure: as §1, §2

[3] = test system: primary neurons; test: Cytotoxicity / neuronal cell death in the presence of NSP5 (PI/DAPI)
[4] = test system: primary neurons; test: Neuronal cell death in the presence of staurosporine; format: cell-based, mouse; details: 1 or 10 μM compound, 5 μM staurosporine
Procedure: as §1, §2

[5] = test system: primary neurons expressing SARS-CoV-2 NSP5 (AAV9-NSP5-V5); test: Effect on neurons in the presence of NSP5 (AAV9-NSP5-V5, immunofluorescence); format: cell-based, mouse; details: 0.4, 2, 10 or 50 μM, two days
[6] = test system: primary neurons; test: Effect of compounds on neuronal cell death caused by NSP5 (Example 6); format: cell-based, mouse; details: 10 μM, 48 hours

| Structure (SMILES) | Protection from NMDA-induced neurotoxicity [1] | Protection from H2O2-induced neurotoxicity [2] | Reduction of neuronal cell death caused by NSP5 ([3]; 0.4, 1, 2, 10 or 50 μM, 48 hours) | Cell death caused by compound ([3]; therapeutic concentrations (nM to low μM)) | Protection from staurosporine-induced neurotoxicity [4] | Prevention of NSP5-induced neuronal death [5] | Reduction of neuronal cell death caused by NSP5 [6] |
| --- | --- | --- | --- | --- | --- | --- | --- |
| NC(=O)C1CCN(c2ncccc2CNC(=O)c2cccc3ccsc23)CC1 [Compound 2] | did not protect | did not protect | selectively reduced neuronal cell death caused by NSP5 | did not cause any cell death | did not protect | prevented NSP5-induced neuronal death in a dose-dependent manner |  |
| NC(=O)C1CCN(c2ncccc2CNC(=O)c2cc(F)cc(C(F)(F)F)c2)CC1 [Compound 35] |  |  |  |  |  |  | greatest activity |
